From ChEMBL document CHEMBL3352650, “Investigation of podophyllotoxin esters as potential anticancer agents: synthesis, biological studies and tubulin inhibition properties” (Eur J Med Chem, 2015)
The source made the active and inactive calls. The calls are words filed in the database; no cut-off is given here.

Experiments:
A549 = test: Cytotoxicity against human A549 cells after 48 hrs by MTT assay; format: functional, cell-based; conditions: A549, 48 h
Tubulin (Homo sapiens) [1] = target: T1, Tubulin (Homo sapiens) (UniProt P68371+Q9H4B7+P0DPH7+P68366+Q13509+Q71U36+P04350+Q3ZCM7+P07437+P68363+Q9BQE3+Q6PEY2+Q13885+Q9BVA1+Q9BUF5); test: Inhibition of tubulin polymerization (unknown origin) at 5 uM measured every min for 1 hr by fluorescence-based assay; format: protein-complex assay; set-up: scale not given: the % may be the effect or the level left
HepG2 = test: Cytotoxicity against human HepG2 cells after 48 hrs by MTT assay; format: functional, cell-based; conditions: HepG2, 48 h
DU-145 [2] = test: Cytotoxicity against human DU145 cells assessed as inhibition of colony formation at 2.5 uM after 3 days by microscopy; format: functional, cell-based
DU-145 [3] = test: Cytotoxicity against human DU145 cells assessed as inhibition of colony formation at 5 uM after 3 days by microscopy; format: functional, cell-based
HeLa = test: Cytotoxicity against human HeLa cells after 48 hrs by MTT assay; format: functional, cell-based
DU-145 [4] = test: Cytotoxicity against human DU145 cells after 48 hrs by MTT assay; format: functional, cell-based; conditions: DU-145, 48 h
MCF7 = test: Cytotoxicity against human MCF7 cells after 48 hrs by MTT assay; format: functional, cell-based; conditions: MCF7, 48 h
DU-145 [5] = test: Induction of apoptosis in human DU145 cells assessed as nuclear fragmentation at 2 uM after 24 hrs by Hoechst 33342 staining based confocal microscopy; format: functional, cell-based
DU-145 [6] = test: Cell cycle arrest in human DU145 cells assessed as accumulation at G2/M phase at 2 uM after 48 hrs by propidium iodide staining-based flow cytometric analysis (reference value: 15%); format: functional
DU-145 [7] = test: Cell cycle arrest in human DU145 cells assessed as accumulation at G0/G1 phase at 2 uM after 48 hrs by propidium iodide staining-based flow cytometric analysis (reference value: 78.96%); format: functional
DU-145 [8] = test: Cell cycle arrest in human DU145 cells assessed as accumulation at S phase at 2 uM after 48 hrs by propidium iodide staining-based flow cytometric analysis (reference value: 5.88%); format: functional
Tubulin (Homo sapiens) [9] = target: T1, Tubulin (Homo sapiens); test: Inhibition of tubulin polymerization in human DU145 cells assessed as reduction of Akt phosphorylation at Ser473 at 2 to 5 uM after 48 hrs by Western blotting analysis; format: cell-based; conditions: DU-145
DU-145 [10] = test: Cell cycle arrest in human DU145 cells assessed as accumulation at sub-G1 phase at 2 uM after 48 hrs by propidium iodide staining-based flow cytometric analysis (reference value: 0.17%); format: functional

SMILES	IC50 (A549) [µM]	Activity (Tubulin (Homo sapiens) [1]) [%]	IC50 (HepG2) [µM]	inhibition (DU-145 [2])	inhibition (DU-145 [3])	IC50 (HeLa) [µM]	IC50 (DU-145 [4]) [µM]	IC50 (MCF7) [µM]	Activity (DU-145 [5])	Activity (DU-145 [6]) [%]	Activity (DU-145 [7]) [%]	Activity (DU-145 [8]) [%]	Activity (Tubulin (Homo sapiens) [9])	Activity (DU-145 [10]) [%]
COc1cc([C@@H]2c3cc4c(cc3[C@H](OC(=O)C#Cc3ccccc3)[C@H]3COC(=O)[C@H]23)OCO4)cc(OC)c1OC	1.81	53.8	1.08	Active	Active	1.12	0.79	1.23	Active	–	–	–	–	–
COc1cc([C@@H]2c3cc4c(cc3[C@H](O)[C@H]3COC(=O)[C@H]23)OCO4)cc(OC)c1OC [PODOFILOX]	–	66.6	–	–	–	–	> 100	–	–	–	–	–	–	–
COc1ccc(/C(=C\c2ccc(OC(C)=O)c(OC)c2)C(=O)O[C@H]2c3cc4c(cc3[C@@H](c3cc(OC)c(OC)c(OC)c3)[C@H]3C(=O)OC[C@@H]32)OCO4)cc1OC	0.91	51.2	10.9	–	Active	2.3	1.06	1.83	–	12.63	42.8	5.69	Dose-dependent effect	38.88
COc1ccc(/C=C(/C(=O)O[C@H]2c3cc4c(cc3[C@@H](c3cc(OC)c(OC)c(OC)c3)[C@H]3C(=O)OC[C@@H]32)OCO4)c2ccc(OC)c(OC)c2)cc1OC	0.71	46.8	5.13	–	Active	2.02	1.4	1.74	–	2.94	22.39	1.68	Dose-dependent effect	73
COc1ccc(/C=C\c2cc(OC)c(OC)c(OC)c2)cc1O	–	69.4	–	–	–	–	–	–	–	–	–	–	–	–
COc1cc([C@@H]2c3cc4c(cc3[C@H](OC(=O)c3cccc(OC)c3OC)[C@H]3COC(=O)[C@H]23)OCO4)cc(OC)c1OC	24.3	–	48.6	–	–	13.2	50.4	21	–	–	–	–	–	–
COc1cc([C@@H]2c3cc4c(cc3[C@H](OC(=O)c3ccccc3Cl)[C@H]3COC(=O)[C@H]23)OCO4)cc(OC)c1OC	34.5	–	24.4	–	–	17.1	11.2	19.5	–	–	–	–	–	–
COc1cc([C@@H]2c3cc4c(cc3[C@H](OC(=O)c3ccc([N+](=O)[O-])cc3)[C@H]3COC(=O)[C@H]23)OCO4)cc(OC)c1OC	0.74	64	8.83	–	Active	2.06	1.1	1.56	–	13.23	41.81	4.24	Dose-dependent effect	40.72
COc1ccc(C(=O)O[C@H]2c3cc4c(cc3[C@@H](c3cc(OC)c(OC)c(OC)c3)[C@H]3C(=O)OC[C@@H]32)OCO4)c([N+](=O)[O-])c1	25.8	–	26.5	–	–	17.6	14.4	15.3	–	–	–	–	–	–
CC#CC(=O)O[C@H]1c2cc3c(cc2[C@@H](c2cc(OC)c(OC)c(OC)c2)[C@H]2C(=O)OC[C@@H]21)OCO3	1.03	62.1	1.47	Active	Active	1	1.71	1.35	Active	–	–	–	–	–
COc1ccc(/C(=C\c2ccc(OC)c(OCc3ccccc3)c2)C(=O)O[C@H]2c3cc4c(cc3[C@@H](c3cc(OC)c(OC)c(OC)c3)[C@H]3C(=O)OC[C@@H]32)OCO4)cc1OC	17.5	–	22.9	–	–	14.3	33	17.6	–	–	–	–	–	–
COc1ccc(/C(=C\c2cc(OC)c(OC)c(OC)c2)C(=O)O[C@H]2c3cc4c(cc3[C@@H](c3cc(OC)c(OC)c(OC)c3)[C@H]3C(=O)OC[C@@H]32)OCO4)cc1	13	–	23.7	–	–	15.9	38.1	23.3	–	–	–	–	–	–
COc1cc([C@@H]2c3cc4c(cc3[C@H](OC(=O)c3cc([N+](=O)[O-])ccc3N)[C@H]3COC(=O)[C@H]23)OCO4)cc(OC)c1OC	22.2	–	27.3	–	–	13.7	11.2	19.7	–	–	–	–	–	–
COc1ccc(/C(=C\c2cc(OC)c(OC)c(OC)c2)C(=O)O[C@H]2c3cc4c(cc3[C@@H](c3cc(OC)c(OC)c(OC)c3)[C@H]3C(=O)OC[C@@H]32)OCO4)cc1OC	10.4	–	23.7	–	–	11.8	37.8	22.9	–	–	–	–	–	–
COc1ccc(/C(=C\c2ccc(OCc3ccccc3)c(OC)c2)C(=O)O[C@H]2c3cc4c(cc3[C@@H](c3cc(OC)c(OC)c(OC)c3)[C@H]3C(=O)OC[C@@H]32)OCO4)cc1OC	24.9	–	28	–	–	15.9	13.4	20.3	–	–	–	–	–	–
COc1cccc2c1C(=O)c1c(O)c3c(c(O)c1C2=O)C[C@@](O)(C(=O)CO)C[C@@H]3O[C@H]1C[C@H](N)[C@H](O)[C@H](C)O1 [DOXORUBICIN]	–	–	3.82	–	–	0.9	4.06	–	–	–	–	–	–	–
COc1ccc(/C(=C\c2ccc(OC)c(OC)c2)C(=O)O[C@H]2c3cc4c(cc3[C@@H](c3cc(OC)c(OC)c(OC)c3)[C@H]3C(=O)OC[C@@H]32)OCO4)cc1	18.2	–	51.2	–	–	15.5	8.32	17.4	–	–	–	–	–	–
COc1cccc(/C(=C\c2cc(OC)c(OC)c(OC)c2)C(=O)O[C@H]2c3cc4c(cc3[C@@H](c3cc(OC)c(OC)c(OC)c3)[C@H]3C(=O)OC[C@@H]32)OCO4)c1	24.9	–	27.3	–	–	14.1	18.4	20.1	–	–	–	–	–	–
